Literature values in PMC5680437 (Journal of Clinical & Translational Endocrinology, 2015).

Tests used:
healthy volunteers = details: ref Arnolds et al. [19]
[1] = subcutaneous; ref Morrow et al. [18]
[2] = 0.2 U/kg dose; ref Heise et al. [20]

| Substance | AUC for glucose infusion rate (to maintain euglycemia) (healthy volunteers) [mg/kg] | Time to 50% of maximal concentration within the first hour [1] [min] | AUC for the glucose infusion rate in the first hour [2] [mg/kg] |
| --- | --- | --- | --- |
| insulin aspart | 16 | 32 |  |
| insulin glulisine | 30 | 21 | 102.3 |
| insulin lispro |  | 31 | 83.1 |
